Results as given in US12569459B2, “Compositions and methods for treating pulmonary edema or lung inflammation” (priority 2020, dated 2026).

Tested on: RLE-6TN cells
Assay: RLE-6TN cell survival under hyperoxia, viable cells by trypan blue exclusion
Assay type: cell-based, rat
Experimental: FIG. 7. […] The cells were cultured in DMEM/F12 with 10% FBS in 21% O2 and 5% CO2 overnight. […] The viable cells are counted immediately after 72-hour hyperoxia exposure. Cell viability is assessed with trypan blue. Viable cells under specific conditions are presented as a percentage of the cell number from hyperoxia alone. Data are mean±s.d. of four independent experiments with *=P<0.05; **=P<0.01.
FIG. 8. […] In both (A) and (B), the number of viable cells under specific conditions is presented as a percentage of the cell number related to hyperoxia alone in the same experiment. Data are mean±s.d. of four independent experiments with *=P<0.05; **=P<0.01.
FIG. 10. HO-1 Upregulation is required for T3-increased RLE-6TN cell survival in hyperoxia. […] The cells were then collected for Western Blot analysis. (B) The cells were incubated in 21% O2 and 5% CO2 for 72 hours in the present of HO-1 inhibitor Tin Protoporphyrin IX(10^−6 M) tinT3 (10^−6 M). […] Cell viability is assessed with trypan blue. The number of viable cells under specific conditions is presented as a percentage of the cell number related to hyperoxia alone. Data are mean±s.d. of three independent experiments with *=P<0.05; **=P<0.01.
FIG. 11. PI3K inhibitor wortmannin blocked T3-induced cell survival in hyperoxia. […] Cell viability is assessed with trypan blue. The number of viable cells under specific conditions is presented as a percentage of the cell number related to hyperoxia alone. Data are mean±s.d. of four independent experiments with *=P<0.05; **=P<0.01.
At the end of the hyperoxia exposure period, the viable cells were counted by trypan blue dye exclusion.

| SMILES | Effect on cell survival under hyperoxia (90% oxygen 72 hours, 10^−6 M) | Effect on AT2 cell number in room air (21% O2 72 hours, 10^−6 M) | Effect on T3-caused increase in cell survival in hyperoxia (90% O2 72 hours, T3 10^−6 M, Tin Protoporphyrin 10^−6 M) |
| --- | --- | --- | --- |
| N[C@@H](Cc1ccc(Oc2cc(I)c(O)c(I)c2)c(I)c1)C(=O)O [rT3] | had no role in cell survival | – | – |
| C=Cc1c2[n-]c(c1C)/C=c1\[n-]/c(c(C)c1C=C)=C\c1[n-]c(c(CCC(=O)O)c1C)C=c1[n-]/c(c(C)c1CCC(=O)O)=C\2.[Sn+4] [Tin protoporphyrin, Tin Protoporphyrin IX] | – | had no effect on AT2 cell number in room air | blocked the T3-caused increase in cell survival and augmented cell death |
